# Values quoted from earlier work, collected in US9370164B2, “Breeding, production, processing and use of specialty Cannabis” (Biotech Institute LLC, priority 2013, dated 2016).
# Where two headings read alike, the source gives them in different places.
# Assays:
# [1] = for Proposed mechanism, Analgesic: post-operative pain
# [2] = for Pharmacological Action: Anti-epileptic: indication: Epilepsy; for Pharmacological Action: Bronchodialator: indications: Asthma, Sleep-related breathing disorders; for Pharmacological Action: Anti-inflammatory: indications: Pain, Chron's, Arthritis; for Pharmacological Action: Anti-inflammatory / Pharmacological Action: Immunosuppressive / Pharmacological Action: Neuroprotective: MS; for Pharmacological Action: Sedative: indication: Sleep disorders; for Pharmacological Action: Analgesic / Pharmacological Action: Anti-spasmodic: indications: MS; for Pharmacological Action: Analgesic: Post-operative pain, Migraine, Neuropathic pain, Sciatica; for Pharmacological Action: Anti-emetic: indication: CIE; for Pharmacological Action: Antidepressant: indication: Depression; for Pharmacological Action: Intestinal Anti-prokinetic: indication: Diarrhea; for Pharmacological Action: Vasorelaxant: indication: Glaucoma; for Pharmacological Action: Muscle relaxant: indication: MS; for Pharmacological Action: Immunosuppressive: indications: Allergies, RA, IBS; for Pharmacological Action: Anti-spasmodic: Spinal cord injury, Cerebral palsy; for Pharmacological Action: Anxiolytic: indications: Panic Disorder, Social Anxiety Disorder, Generalized Anxiety Disorder, PTSD; for Pharmacological Action: Neuroprotective: indications: Parkinson's, Alzheimer's, Stroke
SMILES,Pharmacological Action: Anti-epileptic [2],"Proposed mechanism, Anti-inflammatory [1]",Pharmacological Action: Anti-inflammatory [2],Pharmacological Action: Sedative [2],Pharmacological Action: Analgesic [2],Pharmacological Action: Antidepressant [2],Pharmacological Action: Anxiolytic [2],other results
CCCc1cc(O)c2c(c1)OC(C)(C)[C@@H]1CCC(C)=C[C@@H]21 [THCV],✓,–,–,–,–,–,–,"Proposed mechanism, Anti-epileptic [1]: (−)CB1"
CC1=CCC2CC1C2(C)C (stereo not drawn) [a-pinene],–,PGE1,✓,–,–,–,–,Pharmacological Action: Bronchodialator [2]: ✓
C=CC(=C)CCC=C(C)C [b-myrcene],–,PGE2,✓,✓,✓,–,–,–
CCCCCc1cc(O)c2c(c1)OC(C)(C)c1ccc(C)cc1-2 [CBN],–,–,–,✓,✓,–,–,–
C=C1CC/C=C(\C)CC[C@@H]2[C@@H]1CC2(C)C [b-caryophyl.],–,PGE1,✓,–,–,–,–,–
CCCCCc1cc(O)c2c(c1)OC(C)(C)[C@@H]1CCC(C)=C[C@@H]21 [THC],✓,(+)PPARg,✓,✓,✓,✓,✓,"Proposed mechanism, Anti-proliferative [1]: (−)TRPM8; Proposed mechanism, Appetite Stimulant ([1]; Appetite Stimulant): (+)PPARg; Proposed mechanism, Vasorelaxant [1]: (+)PPARg; Pharmacological Action: Anti-emetic [2]: ✓; Pharmacological Action: Intestinal Anti-prokinetic [2]: ✓; Pharmacological Action: Vasorelaxant [2]: ✓; Pharmacological Action: Muscle relaxant [2]: ✓; Pharmacological Action: Immunosuppressive [2]: ✓; Pharmacological Action: Appetite Stimulant ([2]; indications: Anorexia, Cachexia, AIDS wasting): ✓; Pharmacological Action: Bronchodialator [2]: ✓; Pharmacological Action: Anti-spasmodic [2]: ✓; Pharmacological Action: Neuroprotective [2]: ✓"
C=CC(C)(O)CCC=C(C)C (stereo not drawn) [Linalool],✓,–,–,✓,✓,–,✓,"Proposed mechanism, Anti-epileptic [1]: anti-Glu"
C=C(C)[C@@H]1CCC(C)=C[C@H]1c1c(O)cc(CCCCC)cc1O [CBD],✓,–,✓,✓,✓,✓,✓,"Proposed mechanism, Analgesic [1]: (+)TRPA1; Proposed mechanism, Anti-epileptic [1]: (+)5HT1A; Proposed mechanism, Anti-psychotic ([1]; Anti-psychotic): (+)TRPV1; Proposed mechanism, Anxiolytic ([1]; panic disorder): (+)5HT1A; Proposed mechanism, Anxiolytic ([1]; social anxiety disorder): (+)CB1; Proposed mechanism, Intestinal Anti-prokinetic ([1]; Intestinal Anti-prokinetic): (−)Ca1; Proposed mechanism, Vasorelaxant [1]: (+)PPARg; Pharmacological Action: Anti-emetic [2]: ✓; Pharmacological Action: Intestinal Anti-prokinetic [2]: ✓; Pharmacological Action: Vasorelaxant [2]: ✓; Pharmacological Action: Immunosuppressive [2]: ✓; Pharmacological Action: Anti-spasmodic [2]: ✓; Pharmacological Action: Neuroprotective [2]: ✓"
CCCCCc1cc(O)c2c(c1)OC(C)(CCC=C(C)C)C=C2 (stereo not drawn) [CBC],–,–,✓,–,✓,–,–,–
CCCCCc1cc(O)c(C/C=C(\C)CCC=C(C)C)c(O)c1 [CBG],✓,–,–,–,✓,✓,✓,"Proposed mechanism, Analgesic [1]: (+)TRPA1; Proposed mechanism, Anti-proliferative [1]: (−)TRPM8; Proposed mechanism, Antidepressant ([1]; Antidepressant): (−)5HT1A; Pharmacological Action: Muscle relaxant [2]: ✓; Pharmacological Action: Anti-spasmodic [2]: ✓"
C=C(C)[C@H]1CC=C(C)CC1 [Limonene],–,–,–,–,–,✓,✓,–
